Data taken from patent publication US20240368123A1, “AROMATIC RING-CONTAINING BIOLOGICAL ANTAGONIST, AND PREPARATION METHOD THEREFOR AND USE THEREOF” (SHANGHAI HANSOH BIOMEDICAL CO., LTD., priority 2021, published 2024).

Legend:
ETA receptors = biological target: T1, ETA receptors (Homo sapiens, UniProt P25101); assay: Effect on calcium current in cells stably expressing ETA receptors (FLIPR, antagonist mode); assay type: cell-based; conditions: HEK293-ETA cells, Fluo-8 AM, FLIPR Tetra; read-out: IC50 values of compounds on calcium current in cells stably expressing ETA receptors
T1 construct: host or cells: HEK293
T1 sequence (P25101 21-427): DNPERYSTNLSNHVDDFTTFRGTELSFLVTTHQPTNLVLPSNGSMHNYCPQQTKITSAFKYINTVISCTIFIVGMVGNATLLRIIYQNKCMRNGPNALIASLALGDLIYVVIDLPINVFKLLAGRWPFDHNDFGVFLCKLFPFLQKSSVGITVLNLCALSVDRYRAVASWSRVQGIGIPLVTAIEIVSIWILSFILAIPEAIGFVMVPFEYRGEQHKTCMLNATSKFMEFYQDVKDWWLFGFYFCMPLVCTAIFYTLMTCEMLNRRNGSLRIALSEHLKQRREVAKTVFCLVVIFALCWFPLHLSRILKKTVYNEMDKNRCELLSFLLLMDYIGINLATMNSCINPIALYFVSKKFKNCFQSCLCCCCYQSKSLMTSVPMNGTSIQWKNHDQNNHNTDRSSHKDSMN
From the text: Test Example 2. Determination of the Effect of the Compounds of the Present Invention on Calcium Current in Cells Stably Expressing ETA Receptors
• Antagonistic effect of test compounds on HEK293-ETA cell activity.
• DMEM, high glucose (Gibco: 12100); • Fetal bovine serum (Biosera: FB-1058/500); • P/S (Biosera: XC-A4122); • 5× Matrigel (Corning: 354230); • HBSS (Sigma: H1387); • HEPES (Invitrogen: 15630080); • Fluo-8 AM (AAT Bioquest: 21080); • Probenecid (Sigma: P8761); • Pluronic F-127 (Sigma: P2443-250G); • Endothelin 1 (MCE: HY—P0202); • Zibotentan (MCE: HY-10088); • 1000× Fluo-8 AM (2 mM): Fluo-8 AM was dissolved in DMSO, the mixture was shaken for 1-2 min, sub-packaged and stored at −20° C.; • Complete culture medium: DMEM+10% FBS+1×P/S; • Cell seeding medium: DMEM+10% FBS+1×PS; • Experimental buffer 1: 1×HBSS+20 mM HEPES+1 mM Probenecid+0.025% Pluronic F-127; • Experimental buffer 2: 1×HBSS+20 mM HEPES+0.075% Pluronic F-127; • 1× Matrigel: 5× Matrigel was diluted with DMEM; • Cell line: HDB HEK293-ETA.
• 1) HEK293-ETA cell line was cultured in complete culture medium at 37° C., 5% CO2 to 70%-90% confluence. • 2) the 384-well cell plate was coated with 1× Matrigel with 5 μL/well at room temperature for 10 to 30 min. • 3) the cells were digested and resuspended in cell seeding medium, inoculation was performed at 8,000 cells/well/20 μL in a 384-well cell culture plate, and the cells were cultured at 37° C., 5% CO2 for 24 h. • 4) the cell culture plate was taken out of the CO2 incubator and equilibrated at room temperature for 10 min. • 5) 1000× Fluo-8 AM was taken and diluted to 1× Fluo-8 AM with experimental buffer 1 that has been equilibrated to room temperature, with a concentration of 2 μM. • 6) the culture medium was removed from the cell culture plate, 20 μL of 1× Fluo-8 AM was added to each well, the mixture was centrifuged at 300 rpm for 60 seconds at room temperature, and incubated at room temperature in the dark for 1 h. • 7) positive control compound and test compound working solution (3×) were formulated: • (1) instrument Bravo was used to dilute the compound to 11 concentration points on the 384-well Echo compound plate (LABCYTE: LP-0200); • (2) instrument ECHO was used to transfer 90 nL of compound per well (compound storage concentration, such as the highest concentration point 10 mM) to the 384-well compound plate (PE: 6008590); • (3) Multidrop Combi was used to add 30 μL of experimental buffer 2 to the 384-well compound plate (PE: 6008590), the positive control compound and test compound were diluted to 30 μM (3×), and placed at room temperature until use. • 8) FLIPR Tetra was used to add 10 μL of diluted 3× compound into the experimental well of the corresponding 384-well cell plate, the compound and cells were incubated for 10 min at room temperature, then 10 μL of diluted 4× agonist was added, and the data was read and collected at the same time.
FLIPR Tetra was used to read and collect the fluorescence signal value (RFU). The maximum RFU value was used to calculate the percent activation data based on the readings of the Low control (DMSO control) and High control (100 nM positive compound) experimental groups {% activation rate=(RFUsample−RFUlow control)/(RFUhigh control−RFUlow control)×100}. The concentration of the test compound was 11 concentrations after diluting the reaction system 3 times, ranging from 10 μM to 0.17 nM.

[1] = Liver microsomal metabolism stability test, rat; assay type: in vitro ADME; conditions: for half-life at 1 μM: rat liver microsomes 0.5 mg/mL, compound 1 μM, NADPH/UDPGA; for Remaining rate: rat liver microsomes, 60 min
Description: (§1) The purpose of this experiment was to detect the stability of the example compounds in liver microsomes of rats, dogs and humans.
(§2) • Formulation of working solution of compounds: compound stock solution was added to phosphate buffer to a final concentration of 20 μM.
(§3) Dilution was performed with 100 mM phosphate buffer to a final concentration of 0.625 mg/mL.
(§4) NADPH (reduced nicotinamide adenine dinucleotide phosphate) and UDPGA (uridine diphosphate glucuronic acid) were weighed, 100 mM phosphate buffer was added, and the final concentration was 20 mM.
(§5) 1 mg of Alamethicin was weighed, and 200 μL of DMSO was added to formulate a 5 mg/mL solution. Then dilution was performed with phosphate buffer to a final concentration of 50 μg/mL.
(§6) Stop solution: the stop solution contains 100 ng/mL labetalol hydrochloride and 400 ng/mL tolbutamide and cold acetonitrile as internal standard.
(§7) 400 μL of formulated liver microsomes, 25 μL of compound working solution and 25 μL of Alamethicin were added in sequence to the 96-well plate, and pre-incubated at 37° C. for 10 min. Then 50 μL of formulated NADPH/UDPGA was added to start the reaction and the mixture was incubated at 37° C. The total volume of the reaction system was 500 μL. The final contents of each component are as follows:
(§8) • Instrument: Shimadzu LC-30 AD; • Chromatographic column: XBridge® C18 (50*4.6 mm, 5 μm particle size); • Mobile phase: A: 0.1% formic acid solution, B: methanol Wash gradient: 0.2-1.6 min 5% A to 95% A, 3.0-3.1 min 95% A to 5% A Run time: 4.0 min.
(§9) • Instrument: API5500 liquid chromatography mass spectrometer, AB Sciex; • Ion source: electrospray ionization source (ESI); • Drying gas: N2, temperature 500° C.; • Electrospray voltage: 5000 V; • Detection mode: positive ion detection; • Scanning mode: reaction monitoring (MRM) mode.

[2] = Liver microsomal metabolism stability test, dog; assay type: in vitro ADME; conditions: for half-life at 1 μM: dog liver microsomes 0.5 mg/mL, compound 1 μM, NADPH/UDPGA; for Remaining rate: dog liver microsomes, 60 min
Description: as §1, §2, §3, §4, §5, §6, §7, §8, §9

| Compound | IC50 (ETA receptors) [nM] | half-life at 1 μM [1] [min] | Remaining rate [1] [%] | half-life at 1 μM [2] [min] | Remaining rate [2] [%] |
| --- | --- | --- | --- | --- | --- |
| CCCCC1=NC2(CC3CC3C2)C(=O)N1Cc1ccc(-c2ccccc2S(=O)(=O)Nc2noc(C)c2C)c(COCC)c1 (stereo not shown) [Example 87, 4′-((2′-butyl-5′-oxaspiro[bicyclo[3.1.0]hexane-3,4′-imidazole]-1′(5′H)-yl)methyl)-N-(4,5-dimethylisoxazol-3-yl)-2′-(ethoxymethyl)-[1,1′-biphenyl]-2-sulfonamide] | 8.2 |  |  |  |  |
| [2H]C([2H])(OCC)c1cc(CN2C(=O)C3(CCCC3)N=C2CCCC)ccc1-c1ccccc1S(=O)(=O)Nc1noc(C)c1Cl [Example 49, 4′-((2-butyl-4-oxo-1,3-diazospiro[4.4]non-1-en-3-yl)methyl)-N-(4-chloro-5-methylisoxazol-3-yl)-2′-(ethoxydeuteriummethyl)-[1,1′-biphenyl]-2-sulfonamide] | 12.9 | 24 | 17.1 | 29.5 | 23.9 |
| CCCCC1=NC2(CCCC2)C(=O)N1Cc1ccc(-c2ccccc2S(=O)(=O)Nc2noc(C)c2Br)c(COCC)c1 [Example 46, 2-[4-[(2-butyl-4-oxo-1,3-diazaspiro[4.4]non-1-en-3-yl)methyl]-2-(ethoxymethyl)phenyl]-N-(4-bromo-5-methyl-isoxazol-3-yl)benzsulfamide] |  | 24.3 | 17.3 | 22.2 | 15.4 |

Now from value to compound, other results behind:

| IC50 (ETA receptors) [nM] | Compound | half-life at 1 μM [1] [min] | Remaining rate [1] [%] | half-life at 1 μM [2] [min] | Remaining rate [2] [%] |
| --- | --- | --- | --- | --- | --- |
| 13.9 | CCCCC1=NC2(CCCC2)C(=O)N1Cc1ccc(-c2ccccc2S(=O)(=O)Nc2noc(C)c2Cl)c(COCC(F)(F)F)c1 [Example 86] |  |  |  |  |
| 7.2 | CCCCC1=NC2(CC3CC3C2)C(=O)N1Cc1ccc(-c2ccccc2S(=O)(=O)Nc2noc(C)c2Cl)c(COCC)c1 (stereo not shown) [Example 65, 4′-((2′-butyl-5′-oxaspiro[bicyclo[3.1.0]hexane-3,4′-imidazole]-1′(5′H)-yl)methyl)-N-(4-chloro-5-methylisoxazol-3-yl)-2′-(ethoxymethyl)-[1,1′-biphenyl]-2-sulfonamide] |  |  |  |  |
| 18.7 | CCCCC1=NC2(CCCCC2)C(=O)N1Cc1ccc(-c2ccccc2S(=O)(=O)Nc2noc(C)c2Cl)c(COCC)c1 [Example 68, 4′-((2-2-4-4-oxo-1,3-diazaspiro[4.5]dec-1-en-3-yl)methyl)-N-(4-chloro-5-methylisoxazol-3-yl)-2′-(ethoxymethyl)-[1,1′-biphenyl]-2-sulfonamide] |  |  |  |  |
